Experimental data reported in US20160015786A1, “MOBILIZING AGENTS AND USES THEREFOR” (MATER MEDICAL RESEARCH INSTITUTE LIMITED, priority 2013, published 2016).

Legend:
Assay type in all cases: in vivo, C57BL/6 mice
[1] = tested on: colony-forming cells (CFCs); assay: Mobilization of colony-forming cells (CFC/CFU) to blood and spleen, colony assays; details: for number of CFUs mobilized from the bone marrow to the blood and spleen: Example 7: D 60 mg/kg, E and F 20 mg/kg, FIG. 13; for number of CFUs mobilized from the bone marrow to the blood and spleen / number of colony forming units mobilized to the spleen / total number (blood and spleen) of mobilized CFUs: + G-CSF vs vehicle + G-CSF; for number of colony forming units mobilized to the spleen / total number (blood and spleen) of mobilized CFUs: Example 8: H and J 60 mg/kg, K 100 mg/kg
Protocol: Mobilization of colony-forming cells (CFCs) to the blood and spleen were measured (FIG. 1B).
This was divided into two experiments in which G-CSF was administered for 2 days in one experiment and 4 days in the other (FIG. 2). […] Mobilization of CFCs, phenotypic Lin^−CD41^−Sca1^+Kit^+ HSPCs and Lin^−CD41^− Sca1^+Kit^+CD48^−CD150^+ HSCs were measured in blood and spleens.
Additional HIF-α potentiating agents in the form of PHD inhibitors were tested for their ability to enhance mobilization induced by G-CSF.
(§1) At the end of treatment, blood was harvested by cardiac puncture, mice were sacrificed by cervical dislocation and spleens harvested. Femurs were removed, cleaned and the bone marrow was flushed with 1 mL PBS+10% newborn calf serum (NCS).
The number of phenotypic hematopoietic stem and progenitor cells remaining in the bone marrow following treatment was measured by flow cytometry using antibodies specific for lineage markers (CD3, CD5, CD45R/B220, F4/80, Gr1, CD41, Ter119), Sca-1, Kit, CD48 and CD150. Similarly, the number of phenotypic hematopoietic stem cells mobilized into the blood and spleen were measured. Colony assays were also performed on blood and spleen to determine the number of colony forming cells per mL of blood and per spleen. […] Levels of significance for differences were calculated using the Student's t-test.
All procedures were approved by the animal experimentation ethics committee of the University of Queensland. […] Plerixafor (AMD3100 octohydrochloride, Tocris Bioscience, Bristol, UK) was injected intraperitoneally as a single 16 mg/kg dose corresponding to 10 mg/kg of AMD3100 base. Tissues were harvested 1 h after Plerixafor administration. […] Control mice were injected with an equivalent volume of saline. At specified time-points, mice were anesthetized with isoflurane before cardiac puncture to harvest blood. Mice were then euthanized by cervical dislocation and BM and bones harvested.
Optimal concentrations of mouse IL-3, IL-6 and soluble kit ligand were added as conditioned media from stably transfected BHK cell lines. Colonies were counted after 7 days culture at 37° C. in a humidified incubator containing 5% CO2.

[2] = tested on: hematopoietic stem and progenitor cells; assay: Phenotypic HSCs, HSPCs and myeloid progenitors in blood, spleen and bone marrow by flow cytometry; details: for total number of HSCs (LSK48-150+) mobilized from the bone marrow / total number of HSPCs (LSK48+ and LSK) mobilized from the bone marrow: Example 7: 20 mg/kg + G-CSF vs vehicle + G-CSF; for total number of HSCs (LSK48-150+) mobilized from the bone marrow / total number of HSPCs (LSK48+ and LSK) mobilized from the bone marrow / total number of myeloid progenitors (LKS−) mobilized: FIGS. 12A-B; for total number of HSCs and progenitors in the BM / total number of myeloid progenitors (LKS−) mobilized: + G-CSF vs vehicle + G-CSF; for total number of myeloid progenitors (LKS−) mobilized: Example 7: D 60 mg/kg; for total number of HSPCs (LSK48+ and LSK) mobilized blood and spleen / total number of phenotypic HSCs (LSK48−150+) mobilized blood and spleen: Example 8: 60 mg/kg + G-CSF vs vehicle + G-CSF, FIGS. 14A-B; for mobilization of myeloid progenitors (LKS−) to the blood / increase in mobilization of myeloid progenitors (LKS−) to the spleen / increase in number of HSPCs (LSK48+ and LSK) mobilized to the spleen / increase in number of phenotypic HSCs (LSK48−150+) mobilized to the spleen: Example 6: 20 mg/kg + G-CSF vs vehicle + G-CSF; for increase in mobilization of myeloid progenitors (LKS−) to the spleen / increase in number of HSPCs (LSK48+ and LSK) mobilized to the spleen / increase in number of phenotypic HSCs (LSK48−150+) mobilized to the spleen: FIGS. 8A-B; for total number of phenotypic HSPCs in the bone marrow: Example 6: 20 mg/kg once daily 3 days + rhuG-CSF 125 μg/kg twice daily 4 days vs vehicle + G-CSF, FIGS. 6A-B; for increase in total number of HSPCs (LSK48+ and LSK) mobilized from the bone marrow / increase in total number of myeloid progenitors (LKS−) mobilized from the bone marrow / increase in total number of phenotypic HSCs (LSK48−150+) mobilized from the bone marrow: Example 6: blood and spleen, 20 mg/kg + G-CSF vs vehicle + G-CSF, FIGS. 9A-B
Protocol: (§2) Additional HIF-α potentiating agents in the form of PHD inhibitors were tested for their ability to enhance mobilization induced by G-CSF. Compound A, Compound B or Compound C, were tested in male, 7 weeks-old C57BL/6 mice. Mice were injected twice daily sub-cutaneously with rhuG-CSF at a dose of 125 μg/kg per injection for four days. Mice were gavaged with 20 mg/kg Compound A, Compound B, Compound C or vehicle control once daily for three days beginning on day 1 of the experiment.
as §1
The number of phenotypic hematopoietic stem and progenitor cells remaining in the bone marrow following treatment was measured by flow cytometry using antibodies specific for lineage markers (CD3, CD5, CD45R/B220, F4/80, Gr1, CD41, Ter119), Sca-1, Kit, CD48 and CD150. Similarly, the number of phenotypic hematopoietic stem cells mobilized into the blood and spleen were measured. Colony assays were also performed on blood and spleen to determine the number of colony forming cells per mL of blood and per spleen. All results are presented as mean f standard deviation with n=6 per groups. Levels of significance for differences were calculated using the Student's t-test.
All procedures were approved by the animal experimentation ethics committee of the University of Queensland. All experiments were performed on nine to twelve-week old C57BL/6 male mice or genetically modified mice back-crossed at least 10 times into C57BL/6. Recombinant human G-CSF (Amgen, Thousand Oaks, Calif.) was injected twice daily subcutaneously at 125 μg/kg per injection for up to 4 consecutive days. Plerixafor (AMD3100 octohydrochloride, Tocris Bioscience, Bristol, UK) was injected intraperitoneally as a single 16 mg/kg dose corresponding to 10 mg/kg of AMD3100 base. Tissues were harvested 1 h after Plerixafor administration. […] Compounds H and J were administered at 60 mg/kg and Compound K was administered at 100 mg/kg. Control mice were injected with an equivalent volume of saline. At specified time-points, mice were anesthetized with isoflurane before cardiac puncture to harvest blood. Mice were then euthanized by cervical dislocation and BM and bones harvested.
Following flushing with PBS plus 2% NCS, enriched central BM cells were pelleted at 370×g for 5 minutes at 4° C. and resuspended in CD16/CD32 hybridoma 2.4G2 supernatant to block IgGFc receptors. HSCs were stained with the biotinylated lineage antibody cocktail (CD3, CD5, B220, CD11b, Gr-1, Ter119) and biotinylated CD41 together with streptavidin (SAV)-Pacific Blue, anti-Sca-1-PECY7, anti-KIT-APC, CD48-FITC and CD150-PE as previously described (17). Data were acquired on a CyAn (Dako Cytomation) flow cytometer and analyzed following compensation with single color controls using FlowJo software (Tree Star, Ashland, Oreg.).

white blood cells = assay: White blood cell number per mL of blood after mobilization treatment
Protocol: as §2, §1

[3] = Spleen weight after mobilization treatment
Protocol: as §2, with “Mice were gavaged with 20 mg/kg Compound A, Compound B, Compound C or vehicle control once daily for three days beginning on day 1 of the experiment.” left out
as §1

[4] = Example 7: Compound D 60 mg/kg, E and F 20 mg/kg
[5] = Example 7: D 60 mg/kg, E 20 mg/kg, + G-CSF vs vehicle + G-CSF
[6] = Example 7: D 60 mg/kg, E and F 20 mg/kg, + G-CSF vs vehicle + G-CSF
[7] = Example 8: H and J 60 mg/kg, K 100 mg/kg
[8] = Example 6: 20 mg/kg + G-CSF vs vehicle + G-CSF, FIG. 10
[9] = Example 6: 20 mg/kg + G-CSF vs vehicle + G-CSF, FIG. 11

CC(C)c1nn(Cc2ccc(-c3ccc(F)cc3)cc2F)c(=O)c(C(=O)NCC(=O)O)c1O [Compound E, {[2-(3,4′-Difluoro-biphenyl-4-ylmethyl)-5-hydroxy-6-isopropyl-3-oxo-2,3-dihydro-pyridazine-4-carbonyl]-amino}-acetic acid]
number of CFUs mobilized from the bone marrow to the blood and spleen [1]: significantly increased
total number of HSCs (LSK48-150+) mobilized from the bone marrow [2]: significant increase
total number of HSPCs (LSK48+ and LSK) mobilized from the bone marrow [2]: significant increase
total number of HSCs and progenitors in the BM [2, 4]: did not significantly alter
total number of myeloid progenitors (LKS−) mobilized ([2]; E and F 20 mg/kg): significant increase
number of white blood cells per mL of blood (white blood cells; [5]): significant increase
increase in spleen weight [3, 6]: approximately 2 fold

O=C(O)CNC(=O)c1ncc2cc(Oc3ccccc3)ccc2c1O [Compound H, [(4-Hydroxy-7-phenoxy-isoquinoline-3-carbonyl)-amino]-acetic acid]
number of colony forming units mobilized to the spleen ([1]; FIG. 15): significant increase
total number (blood and spleen) of mobilized CFUs ([1]; FIG. 15): significant increase
total number of HSPCs (LSK48+ and LSK) mobilized blood and spleen [2]: significant increase
total number of phenotypic HSCs (LSK48−150+) mobilized blood and spleen [2]: significant increase
total number of HSCs and progenitors in the BM [2, 7]: did not significantly alter

O=C(O)CNC(=O)c1c(O)n(C2CCCCC2)c(=O)n(C2CCCCC2)c1=O [Compound D, [(1,3-Dicyclohexyl-6-hydroxy-2,4-dioxo-1,2,3,4-tetrahydro-pyrimidine-5-carbonyl)-amino]-acetic acid]
number of CFUs mobilized from the bone marrow to the blood and spleen [1]: significantly increased
total number of HSCs and progenitors in the BM [2, 4]: did not significantly alter
total number of myeloid progenitors (LKS−) mobilized ([2]; E and F 20 mg/kg): significantly increased
number of white blood cells per mL of blood (white blood cells; [5]): significant increase
increase in spleen weight [3, 6]: approximately 2 fold

N#Cc1nc(C(=O)NCC(=O)O)c(O)c2c(Oc3ccc(Cl)cc3)cccc12 [Compound A, {[5-(4-Chloro-phenoxy)-1-cyano-4-hydroxy-isoquinoline-3-carbonyl]-amino}-acetic acid]
number of colony forming units mobilized to the blood [1, 8]: significantly increased
mobilization of myeloid progenitors (LKS−) to the blood [2]: did not significantly alter
increase in mobilization of myeloid progenitors (LKS−) to the spleen [2]: approximately 3 fold
increase in number of HSPCs (LSK48+ and LSK) mobilized to the spleen [2]: approximately 2 fold
increase in number of phenotypic HSCs (LSK48−150+) mobilized to the spleen [2]: approximately 2 fold
total number of phenotypic HSPCs in the bone marrow [2]: did not significantly alter
increase in total number of HSPCs (LSK48+ and LSK) mobilized from the bone marrow [2]: approximately 2 fold
increase in total number of myeloid progenitors (LKS−) mobilized from the bone marrow [2]: approximately 6 fold
increase in total number of phenotypic HSCs (LSK48−150+) mobilized from the bone marrow [2]: approximately 2 fold
number of white blood cells per mL of blood (white blood cells; [9]): significant increase
increase in spleen weight [3, 9]: approximately 2 fold

O=c1c(-n2ccnn2)c[nH]n1-c1cc(N2CCOCC2)ncn1 [Compound F, 2-(6-Morpholin-4-yl-pyrimidin-4-yl)-4-[1,2,3]triazol-1-yl-1,2-dihydro-pyrazol-3-one]
number of CFUs mobilized from the bone marrow to the blood and spleen [1]: significantly increased
total number of HSCs (LSK48-150+) mobilized from the bone marrow [2]: significant increase
total number of HSPCs (LSK48+ and LSK) mobilized from the bone marrow [2]: significant increase
total number of HSCs and progenitors in the BM [2, 4]: did not significantly alter
total number of myeloid progenitors (LKS−) mobilized ([2]; E and F 20 mg/kg): significant increase
increase in spleen weight [3, 6]: approximately 2 fold

N#Cc1nc(C(=O)NCC(=O)O)c(O)c2ccn(Cc3ccccc3F)c12 [Compound C, {[7-Cyano-1-(2-fluoro-benzyl)-4-hydroxy-1H-pyrrolo[2,3-c]pyridine-5-carbonyl]-amino}-acetic acid]
number of colony forming units mobilized to the blood [1, 8]: significantly increased
mobilization of myeloid progenitors (LKS−) to the blood [2]: did not significantly alter
increase in mobilization of myeloid progenitors (LKS−) to the spleen [2]: approximately 3 fold
increase in number of HSPCs (LSK48+ and LSK) mobilized to the spleen [2]: approximately 2 fold
increase in number of phenotypic HSCs (LSK48−150+) mobilized to the spleen [2]: approximately 2 fold
total number of phenotypic HSPCs in the bone marrow [2]: did not significantly alter
increase in total number of HSPCs (LSK48+ and LSK) mobilized from the bone marrow [2]: approximately 2 fold
increase in total number of myeloid progenitors (LKS−) mobilized from the bone marrow [2]: approximately 6 fold
increase in total number of phenotypic HSCs (LSK48−150+) mobilized from the bone marrow [2]: approximately 2 fold
number of white blood cells per mL of blood (white blood cells; [9]): significant increase
increase in spleen weight [3, 9]: approximately 2 fold

O=C(O)CNC(=O)c1ncc(-c2cccc(F)c2)cc1O [Compound K, {[5-(3-Fluoro-phenyl)-3-hydroxy-pyridine-2-carbonyl]-amino}-acetic acid]
number of colony forming units mobilized to the spleen ([1]; FIG. 15): no significant change
total number (blood and spleen) of mobilized CFUs ([1]; FIG. 15): no significant change
total number of HSCs and progenitors in the BM [2, 7]: did not significantly alter

COc1ccc(Oc2ccc3c(O)c(C(=O)NCC(=O)O)ncc3c2)cc1 [Compound J, {[4-Hydroxy-7-(4-methoxy-phenoxy)-isoquinoline-3-carbonyl]-amino}-acetic acid]
number of colony forming units mobilized to the blood ([1]; Example 8: 60 mg/kg + G-CSF vs vehicle control, FIG. 15): significant increase
number of colony forming units mobilized to the spleen ([1]; FIG. 15): significant increase
total number (blood and spleen) of mobilized CFUs ([1]; FIG. 15): significant increase
total number of HSPCs (LSK48+ and LSK) mobilized blood and spleen [2]: significant increase
total number of phenotypic HSCs (LSK48−150+) mobilized blood and spleen [2]: significant increase
total number of HSCs and progenitors in the BM [2, 7]: did not significantly alter
